Experimental data taken from patent publication US20170267679A1, “[…] FUSED PYRIMIDINE COMPOUNDS AS INHIBITORS OF p97 COMPLEX” (Cleave Biosciences, Inc., priority 2016, published 2017).

Assays:
p97 = p97 (Homo sapiens, UniProt P55072); assay: p97 ADP Glo ATPase biochemical assay; details: 20 nM p97, 20 uM ATP, 37 deg C, 15 min; read-out: 97 ADP Glo Assay: IC50
Method: The ATPase assay is performed according the following protocol: Purified enzyme (20 nM p97), substrate (20 μM ATP) and a dose titration of compounds are mixed in buffer (50 mM TRIS pH 7.5, 20 mM MgCl2, 0.02% TX-100, 1 mM DTT, 0.2% (v/v) glycerol) and incubated at 37° C. for 15 minutes. The reaction is terminated and the level of product generated is measured using the ADP Glo Assay Kit (Promega, Madison Wis.). Plotting product generated versus compound concentration and using a four-parameter fit model generates an IC50 value for each compounds.
The p97 assay is an initial screening assay used to determine inhibitory activity of the compounds of the invention against the p97 complex. As discussed above, inhibition of activity of the p97 proteosome complex can enable apoptosis and cause elimination of neoplastic cells (cancer cells). The method follows that of Christianson in Nat. Cell Biol., (2011) 14:93.
Assay Buffer is a mixture of 50 mM TRIS pH 7.5, 20 mM MgCl2, 0.02% TX-100, 1 mM DTT and 0.2% (v/v) Glycerol. The well plate is Platetype: Corning 3674, 384 w plate. The identification kit is an ADP glo kit (Promega): stop buffer, detection reagent.
Serial dilute compound in DMSO in a 1:3.33-fold 10 point serial dilution.
in each well of 384 w plate add the following reagents:
0.5 μL compound serial diluted in DMSO (Final Conc. 10%)
2 μL ATP (Final Conc.=20 uM, diluted in assay buffer)
2.5 μL p97 (Final Conc.=20 nM, diluted in assay buffer)
Incubate at 37 deg C. for 15 min.
Add 5μ of stop buffer, incubate at RT for 40 min.
Add 10 μL of detection reagent, incubate at RT for 30 min.
Read luminescence on Envision plate reader.
Normalize luminescence data using no enzyme (full inhibition) and no compound (no inhibition) controls. Plot normalized luminescence data against log-transformed concentration values and fit to a sigmoidal curve to determine IC50 values (done in Collaborative Drug Discovery software).

K48-Ub in A549 cells = assay: A549 K48 cell intensity (K48 poly-ubiquitin immunofluorescence); format: cell-based; details: Homo sapiens, 6 hr incubation
Method: Image-analysis is used to generate quantitative data from these assays that can be fit to a four-parameter sigmoid curve to derive IC50 values. Substrates of the ubiquitin-proteasome system, such as p53, are monitored after tumor cell lines are incubated with compounds for several hours. Accumulation of these proteins indicates an inhibition of proteasome-mediated degradation. Accumulation of lysine-48 chain linkage of poly-ubiquitin is also monitored by immunofluorescence as an indicator of ubiquitin-proteasome system inhibition. Both LC3 and SQSTM1 are mediators of autophagy. The localization and amounts of these proteins are monitored by immunofluorescence and report on the activity and inhibition of autophagy in response to p97 inhibition.
(§1) Plate 25 μL of A549 cells in every well of 384-well plate using multidrop. • Two (2) black plates for IF at 2500 cells/well • Let plate sit at room temp for 10-15 minutes prior to putting in incubator to allow cells to stick in middle of plate. • One (1) white plate for viability at 500 cells/well.
Treat Cells: • Serial dilute compounds with a 10 point 2-fold serial dilution in DMSO to make 250× stock compound solution • Dilute compounds 1:125 in cell culture media to make a 2× solution Add 25 μL of dilution compounds to cell plates in well duplicates Put cells back in incubator (6 hr incubation for black plates, 72 hr incubation for white plates).
Incubate cells in black plates with compound at 37 deg C. for 6 hrs. add 15 μL of 16% Paraformaldehyde (PFA) directly into media of each well, • incubate at room temp for 5 min, flick plate and wash in 50 µL of PBS block in 50 μL of Blocking Buffer for 30 minutes (can go up to several hours) • Blocking buffer: 1×PBS, 1% BSA, 0.3% Triton-X100, Hoechst (1:10,000) incubate in 25 μL of primary antibody in blocking buffer at 4 deg C. over night […]
Secondary Antibodies: • AlexaFluor488 Goat anti-Rabbit 1:2,000 (Life Tech A11008) • AlexaFluor555 Goat anti-Mouse 1:2,000 (Life Tech A21422) wash black plates 3× in 50 μL PBS (˜5 min each) • incubate in 25 μL of secondary antibody (1:2,000) in blocking buffer for 1-2 hrs at room temp (alexafluor488-anti-Rabbit/alexafluor555-anti-Mouse) Image plates in high content microscope with 405 nm, 488 nm and 555 nm filters Data Analysis: • Nuclear counts and cellular intensities of each markers are measured using Hoechst as a nuclear marker with an automated image analysis protocol using Matlab software (Math Works)

A549 cells = assay: A549 CellTitre Glo viability assay; format: cell-based; details: Homo sapiens, 72 hr incubation
Excerpt: Anti-tumor effects are monitored in cultured cancer cells after several days of compound treatment. The cell titer glo assay (Promega) measures the amount of ATP present as a proxy for cellular viability. Cellular counting is done using high-content microscopy followed by image analysis. A hanging drop 3D-culture system (3D Biomatrix) is used followed by cell titer glo to measure growth in a tumor-like environment.
The cellular assay provides information about the anti-neoplastic activity of the compounds of the invention. The compounds are tested against cultured cancer cells to determine whether or not the compounds of the invention are capable of intersecting with cancer cells to minimize or eliminate such cells. The assay involves establishing colonies of such cells and then treating them with the test compound under specified conditions and analysis regima to determine results.
as §1
Treat Cells: • Serial dilute compounds with a 10 point 2-fold serial dilution in DMSO to make 250× stock compound solution • Dilute compounds 1:125 in cell culture media to make a 2× solution Add 25 μL of dilution compounds to cell plates in well duplicates
Put cells back in incubator (6 hr incubation for black plates, 72 hr incubation for white plates).
Thaw an aliquot of frozen cell titer glo (Promega G7572) at room temperature.
Add 45 mL of NaCl/PBS solution to 5 ml of cell titer glo (10×).
Remove white plates from incubator, leave at room temp for 30 minutes.
Add 25 μL of diluted cell titer glo to each well.
Shake plate for >1 minute.
Incubate plate for >5 minutes to stabilize luminescence.
Read luminescence on plate reader

Caco-2 cell monolayer = details: pH 7.4, range over 12 inter-day experiments

p97, sequence (P55072 whole entry): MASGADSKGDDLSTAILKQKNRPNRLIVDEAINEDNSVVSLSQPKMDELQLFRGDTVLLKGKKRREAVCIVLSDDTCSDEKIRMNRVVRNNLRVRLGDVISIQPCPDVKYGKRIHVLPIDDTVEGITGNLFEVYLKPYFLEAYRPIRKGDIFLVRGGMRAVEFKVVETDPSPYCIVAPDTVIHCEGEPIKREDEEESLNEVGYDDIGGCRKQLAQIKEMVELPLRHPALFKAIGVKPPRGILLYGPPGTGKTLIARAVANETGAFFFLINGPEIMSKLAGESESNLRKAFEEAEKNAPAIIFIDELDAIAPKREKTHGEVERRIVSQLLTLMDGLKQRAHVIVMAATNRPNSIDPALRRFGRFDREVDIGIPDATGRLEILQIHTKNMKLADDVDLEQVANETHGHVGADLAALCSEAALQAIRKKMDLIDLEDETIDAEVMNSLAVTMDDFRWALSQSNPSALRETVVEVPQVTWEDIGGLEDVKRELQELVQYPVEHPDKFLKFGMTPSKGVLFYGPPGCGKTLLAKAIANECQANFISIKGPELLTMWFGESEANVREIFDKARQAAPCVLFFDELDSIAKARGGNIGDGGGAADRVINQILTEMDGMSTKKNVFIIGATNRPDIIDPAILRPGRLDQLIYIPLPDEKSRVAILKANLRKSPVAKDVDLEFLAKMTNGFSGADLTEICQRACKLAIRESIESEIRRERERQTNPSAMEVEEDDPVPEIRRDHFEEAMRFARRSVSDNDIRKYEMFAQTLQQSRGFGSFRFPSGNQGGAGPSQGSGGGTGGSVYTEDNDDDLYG

| IC50 (p97) [nM] | IC50 (K48-Ub in A549 cells) [nM] | IC50 (A549 cells) [nM] | Peff in pH 7.4 Caco-2, A B, Range (Caco-2 cell monolayer; A to B) | Peff in pH 7.4 Caco-2, B A, Range (Caco-2 cell monolayer; B to A) | SMILES |
| --- | --- | --- | --- | --- | --- |
| 16 | 736 | 1340 |  |  | Cc1cc2c(C(N)=O)cccc2n1-c1nc(NCc2ccccc2)c2c(n1)C1CCCCN1CC2 (centres unmarked) [Compound 001, 1-(4-(benzylamino)-6,8,9,10,11,11a-hexahydro-5H-pyrimido[4,5-a]quinolizin-2-yl)-2-methyl-1H-indole-4-carboxamide] |
| 15 | 6620 | 2690 |  |  | Cc1cc2c(C(N)=O)cccc2n1-c1nc(NCc2ccccc2)c2c(n1)C1CCCN1CC2 (centres unmarked) [Compound 002, 1-(4-(benzylamino)-5,6,8,9,10,10a-hexahydropyrimido[5,4-g]indolizin-2-yl)-2-methyl-1H-indole-4-carboxamide] |
| 25 | 642 | 2340 |  |  | Cc1cc2c(C(N)=O)cccc2n1-c1nc2c(c(NCc3ccccc3)n1)CN1CCCCC1C2 (centres unmarked) [Compound 003, 1-(4-(benzylamino)-7,8,9,10,10a,11-hexahydro-5H-pyrimido[4,5-b]quinolizin-2-yl)-2-methyl-1H-indole-4-carboxamide] |
| 19 | 273 | 1120 |  |  | Cc1cc2c(C(N)=O)cccc2n1-c1nc2c(c(NCc3ccccc3)n1)CN1CCCC1C2 (centres unmarked) [Compound 004, 1-[4-(Benzylamino)-5,7,8,9,9a,10-hexahydropyrimido[5,4-f]indolizin-2-yl]-2-methyl-indole-4-carboxamide] |
|  |  |  | 18.50-36.80 x E−6 cm/sec | 16.30-31.40 x E−6 cm/sec | CC(C)NCC(O)COc1cccc2ccccc12 (centres unmarked) [Propranolol] |
